Here are results for eleven compounds from US20100272680A1, “Piperidinyl Cyclic Amido Antiviral Agents” (priority 2009, published 2010).

SMILES strings stand for the structures.

Holding throughout (assay type): cell-based
One test concerns HCV replicon. As to the kind of experiment: Replicon assay (Table 2, genotype not stated). The note with it: Hepatitis C virus, Table 2, first measurement, luciferase activity after 48 hours. The method, then: Compounds were assayed for activity against HCV using the genotype 1a and 1b subgenomic replicon model systems. Stable cell lines bearing the genotype 1a and 1b replicons were used for screening of compounds. Both replicons are bicistonic and contain the firefly luciferase gene. The ET cell line is stably transfected with RNA transcripts harboring a I389luc-ubi-neo/NS3-3′/ET replicon with firefly luciferase-ubiquitin-neomycin phosphotransferase fusion protein and EMCV-IRES driven NS3-5B polyprotein containing the cell culture adaptive mutations (E1202G; T12801; K1846T) (Krieger at al, 2001 and unpublished). The genotype 1a replicon is a stable cell line licensed from Apath LLC, modified to contain the firefly luciferase gene. The cells were grown in DMEM, supplemented with 10% fetal calf serum, 2 mM Glutamine, Penicillin (100 IU/mL)/Streptomycin (100 μg/mL), 1× nonessential amino acids, and 250-500 μg/mL G418 (“Geneticin”). They were all available through Life Technologies (Bethesda, Md.). The cells were plated at 0.5×10^4 cells/well in 384 well plates containing compounds. The final concentration of compounds ranged between 0.03 μM to 50 μm and the final DMSO concentration of 0.5-1%.
Luciferase activity was measured 48 hours later by adding a Steady glo (Promega, Madison, Wis.). Percent inhibition of replication data was plotted relative to no compound control. Under the same condition, cytotoxicity of the compounds was determined using cell titer glo (Promega, Madison, Wis). IC50s were determined from a 10 point dose response curve using 3-4-fold serial dilution for each compound, which spans a concentration range >1000 fold. BioAssay determines the level of inhibition for each compound by normalizing cross-talk corrected plate values against the negative […] controls to determine Percent Inhibition:
These normalized values are exported to EC50 where they are plotted against the molar compound concentrations using the standard four parameter logistic equation: […]
Some EC50 measurements were repeated a second time and for both 1A and 1B genotypes after those reported in Table 2 for compounds 101-108 and the repeated data was reported in Table 3.

Another test deals with HCV Genotype 1A Replicon. As to the kind of experiment: Replicon assay, genotype 1a subgenomic replicon, luciferase readout. The note with it: Hepatitis C virus, 48 h, Table 3; luciferase activity after 48 hours. In a few lines: (§1)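 EC50 values came from four-parameter logistic fits of 10-point dose responses (3–4-fold steps, final 0.03–50 μM, 0.5–1% DMSO), normalized against no-compound and no-cell controls. Firefly luciferase was read 48 h after plating 0.5×10^4 replicon cells/well, 1b ET or 1a Apath-derived line.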

A further test deals with HCV Genotype 1B Replicon. The test can be described thus: Replicon assay, genotype 1b subgenomic replicon (ET cell line), luciferase readout. The conditions noted are these: Hepatitis C virus, 48 h, Table 3; luciferase activity after 48 hours. An outline of the steps: as §1
In general terms: In antiviral work, replicon cells carry a viral genome segment that copies itself.

Turning to `O=C(c1nc2c(C(F)(F)F)cc(-c3ccoc3)cn2c1Cl)N1CCC(N2CCCC2=O)CC1` [Compound 101, 1-[1-(3-Chloro-6-furan-3-yl-8-trifluoromethyl-imidazo[1,2-a]pyridine-2-carbonyl)-piperidin-4-yl]-pyrrolidin-2-one], in the test with HCV replicon, the 50% effective concentration (EC50) was determined as 57 nM.

`O=C(c1nc2c(C(F)(F)F)cc(-c3cn[nH]c3)cn2c1Cl)N1CCC(N2CCCC2=O)CC1` [Compound 102, 1-{1-[3-Chloro-6-(1H-pyrazol-4-yl)-8-trifluoromethyl-imidazo[1,2-a]pyridine-2-carbonyl]-piperidin-4-yl}-pyrrolidin-2-one]: the EC50 in the test on HCV replicon stood at 683 nM.

In the case of `O=C(c1nc2c(C(F)(F)F)cc(-c3ccoc3)cn2c1Cl)N1CCC(N2CCOC2=O)CC1` [Compound 103, 3-[1-(3-Chloro-6-furan-3-yl-8-trifluoromethyl-imidazo[1,2-a]pyridine-2-carbonyl)-piperidin-4-yl]-oxazolidin-2-one], the values for the EC50 in the test on HCV Genotype 1A Replicon, in the test with HCV Genotype 1B Replicon and in the test on HCV replicon were 10 nM, 20 nM and 26 nM, respectively.

Regarding `O=C(c1nc2c(C(F)(F)F)cc(-c3ccccc3)cn2c1Cl)N1CCC(N2CCOC2=O)CC1` [Compound 104, 3-[1-(3-Chloro-6-phenyl-8-trifluoromethyl-imidazo[1,2-a]pyridine-2-carbonyl)-piperidin-4-yl]-oxazolidin-2-one], the concentration for a half-maximal effect (EC50) with HCV replicon stood at 283 nM.

Consider `O=C(c1nc2c(C(F)(F)F)cc(Br)cn2c1Cl)N1CCC(N2CCOC2=O)CC1` [Compound 105, 3-[1-(6-Bromo-3-chloro-8-trifluoromethyl-imidazo[1,2-a]pyridine-2-carbonyl)-piperidin-4-yl]-oxazolidin-2-one], for which the EC50 in the test with HCV Genotype 1A Replicon came to 30 nM; in the test with HCV Genotype 1B Replicon it was 40 nM; in the test with HCV replicon it was 71 nM.

On to `C=C(C)c1cc(C(F)(F)F)c2nc(C(=O)N3CCC(N4CCOC4=O)CC3)c(Cl)n2c1` [Compound 106, 3-[1-(3-Chloro-6-isopropenyl-8-trifluoromethyl-imidazo[1,2-a]pyridine-2-carbonyl)-piperidin-4-yl]-oxazolidin-2-one], for which the EC50 amounted to 10 nM with HCV Genotype 1A Replicon, 20 nM in the test on HCV Genotype 1B Replicon and 5 nM with HCV replicon.

The compound `O=C(c1nc2c(C(F)(F)F)cc(C3=CCCC3)cn2c1Cl)N1CCC(N2CCOC2=O)CC1` [Compound 107, 3-[1-(3-Chloro-6-cyclopent-1-enyl-8-trifluoromethyl-imidazo[1,2-a]pyridine-2-carbonyl)-piperidin-4-yl]-oxazolidin-2-one] yielded an EC50 in the test on HCV replicon of 16 nM. This lies in the double-digit nanomolar range.

As for `O=C(c1nc2c(C(F)(F)F)cc(-c3cn[nH]c3)cn2c1Cl)N1CCC(N2CCOC2=O)CC1` [Compound 108, 3-{1-[3-Chloro-6-(1H-pyrazol-4-yl)-8-trifluoromethyl-imidazo [1,2-a]pyridine-2-carbonyl]-piperidin-4-yl}-oxazolidin-2-one], the figures for the EC50 in the test on HCV Genotype 1A Replicon, in the test with HCV Genotype 1B Replicon and in the test with HCV replicon were 20 nM, 130 nM and 213 nM, respectively.

Turning to `CC1(C)CN(C(=O)c2nc3c(C(F)(F)F)cc(-c4ccoc4)cn3c2Cl)CCC1N1CCOC1=O` (stereo not shown) [Compound 204, 3-(1-{[3-chloro-6-(3-furanyl)-8-(trifluoromethyl)imidazo[1,2-a]pyridin-2-yl]carbonyl}-3,3-dimethyl-4-piperidinyl)-1,3-oxazolidin-2-one], the EC50 came out at 40 nM in the test on HCV Genotype 1A Replicon and 300 nM in the test on HCV Genotype 1B Replicon.

For the compound `CC1(C)CC(N2CCOC2=O)CCN1C(=O)c1nc2c(C(F)(F)F)cc(-c3ccoc3)cn2c1Cl` (stereo not shown) [Compound 211, 3-(1-{[3-chloro-6-(3-furanyl)-8-(trifluoromethyl)imidazo[1,2-a]pyridin-2-yl]carbonyl}-2,2-dimethyl-4-piperidinyl)-1,3-oxazolidin-2-one], the EC50 in the test with HCV Genotype 1A Replicon is 580 nM; in the test on HCV Genotype 1B Replicon it was 340 nM.

On to `N#Cc1cc(C(F)(F)F)c2nc(C(=O)N3CCC(N4CCOC4=O)CC3)c(Cl)n2c1` [Compound 239, 3-chloro-2-{[4-(2-oxo-1,3-oxazolidin-3-yl)-1-piperidinyl]carbonyl}-8-(trifluoromethyl)imidazo[1,2-a]pyridine-6-carbonitrile], for which the results for the EC50 in the test on HCV Genotype 1A Replicon and in the test on HCV Genotype 1B Replicon were 800 nM and 7940 nM, respectively.

One may read the EC50 as the concentration giving half of the maximal effect. A lower EC50 goes with an effect from little substance.
